Test results taken from PubChem BioAssay (NCI).
Values joined by “and” are separate entries in the source; they are usually repeats but may differ in a detail not shown here. Identical values can stand only once.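 How tested: cells in 96-well plates exposed to compound for 48 hours at five concentrations. GI50 = concentration required for 50% inhibition of growth. TGI: total growth inhibition.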

What was measured:
Test in all cases: NCI tumour cell line growth inhibition, 48 h
NCI-H522 lung = system: NCI-H522 lung
HS 578T breast = system: HS 578T breast
SK-MEL-5 melanoma = system: SK-MEL-5 melanoma
UACC-257 melanoma = system: UACC-257 melanoma
SK-MEL-28 melanoma = system: SK-MEL-28 melanoma
MDA-MB-231 breast = system: MDA-MB-231 breast
786-0 renal = system: 786-0 renal
BT-549 breast = system: BT-549 breast
PC-3 prostate = system: PC-3 prostate
ACHN renal = system: ACHN renal
HCT-15 colon = system: HCT-15 colon
CCRF-CEM leukemia = system: CCRF-CEM leukemia
SN12C renal = system: SN12C renal
HT29 colon = system: HT29 colon
MCF7 breast = system: MCF7 breast
NCI-H226 lung = system: NCI-H226 lung

SMILES	TGI (NCI-H522 lung)	TGI (HS 578T breast) [µM]	TGI (SK-MEL-5 melanoma) [µM]	TGI (UACC-257 melanoma) [µM]	TGI (SK-MEL-28 melanoma)	TGI (MDA-MB-231 breast) [µM]	TGI (786-0 renal) [µM]	TGI (BT-549 breast) [µM]	TGI (PC-3 prostate) [µM]	TGI (ACHN renal) [µM]	TGI (HCT-15 colon)	TGI (CCRF-CEM leukemia) [µM]	TGI (SN12C renal) [µM]	TGI (HT29 colon) [µM]	TGI (MCF7 breast)	TGI (NCI-H226 lung) [µM]	GI50 (NCI-H522 lung)	GI50 (SK-MEL-28 melanoma)	GI50 (MCF7 breast) [µM]	GI50 (HCT-15 colon) [µM]
Cn1c2ccccc2c2c(-c3ccccc3)[n+]3ccccc3nc21	69.7 µM	> 100	33.8	36.9	46.7 µM	97.5	65.4	54.7	> 100	> 100	> 100 µM	99.8	61.6	> 100						
O=C(O)CNC(=O)CO/N=C1/C(c2c(O)[nH]c3ccccc23)=Nc2ccccc21	> 100 µM	> 100	> 100	> 100	> 100 µM	> 100	> 100	> 100	> 100	> 100	> 100 µM	> 100	> 100	> 100	> 100 µM	> 100				
CN(C)c1ccc(/C=C2/SC(=S)NC2=O)cc1	> 100 µM	> 100	> 100	> 100	> 100 µM	> 100	> 100	> 100	> 100	> 100	> 100 µM	> 100	> 100	> 100	> 100 µM	> 100				
C=CCc1cc(-c2cc(CC=C)c(O)c(CN(CCCl)CCCl)c2)cc(CN(CCCl)CCCl)c1O	27.3 µM	> 100	32.7	33.7	40.2 µM	45.2	37.9	66.9	25.8	21.9	38 µM	> 100	27.7	33.3	42.7 µM	33.5				
COc1cc(O)cc(/C=C/c2ccc(O)cc2)c1	> 100 µM	> 100	> 100	> 100	> 100 µM	47.9	> 100	39.6	> 100	31.2	29.9 µM		77.8	> 100	> 100 µM	63.1				
O=C1/C(=C/C=C/c2ccccc2)N=C(c2ccccc2)N1C1Nc2cc3c(cc2S1)NC(N1C(=O)/C(=C/C=C/c2ccccc2)N=C1c1ccccc1)S3 (configuration not stated)	28.8 µM	> 100	> 100	> 100	> 100 µM	> 100	> 100		> 100	> 100	> 100 µM	> 100		> 100	> 100 µM	> 100				
CN1C(=O)c2ccccc2NC(=O)c2cnn(C)c21	> 100 µM		> 100	> 100	> 100 µM						> 100 µM	> 100	> 100	> 100	> 100 µM	> 100				
C[n+]1c2ccccc2c(CNc2ccc(S(=O)(=O)N=C(N)N)cc2)c2ccccc21	32.3 µM		22.8	41.3	40.7 µM		43.4			> 100	32.3 µM	7.16	27.8	49.8		10.9				
CC1=NN(c2cccc(Cl)c2)C2(SCC(=O)N2c2nc3ccccc3s2)/C1=C\c1ccc(Cl)cc1 (configuration not stated)	39.2 µM	73.6	30.8	63.9	72.4 µM	72	48.1		31.1	46.4	38.1 µM	3.31		42.7	87 µM	75.1				
O=C(O)CCCCCCC[C@@H]1S[C@H]1CCCCCCO	> 100 µM		> 100	> 100	> 100 µM						> 100 µM	> 100	> 100	> 100	> 100 µM	> 100				
Nc1ccccc1CCCC(=O)O	> 100 µM	> 100	> 100	> 100	> 100 µM	> 100	> 100	> 100	> 100	> 100	> 100 µM	> 100	> 100	> 100	> 100 µM	> 100				
CC1=C(C)C(=O)O[C@@H]([C@](C)(O)[C@]2(O)CC[C@@]3(O)[C@@H]4C[C@H]5O[C@]56[C@@H](O)C=CC(=O)[C@]6(C)[C@H]4CC[C@]23C)C1	2.16 µM and 1 µM		2.18	3.84	5.86 µM and 3.44 µM						2.87 µM and 3.02 µM		6.59	5.35	2.94 µM and 3.41 µM	22	0.0804 µM and 0.0721 µM	0.606 µM and 0.228 µM	0.164	0.169
O=c1[nH]c(Nc2ccc(F)c(Cl)c2)nc2nc[nH]c12	> 100 µM	> 100	> 100	> 100	> 100 µM	> 100	> 100	> 100	> 100	> 100	> 100 µM	> 100	> 100	> 100	> 100 µM	> 100				
S=C1SC(=Nc2ccccc2)C(=Nc2ccccc2)N1c1ccccc1	> 100 µM	> 100	> 100		> 100 µM	> 100		> 100	> 100		> 100 µM	> 100	> 100	> 100	> 100 µM	> 100				
CC(C)=CC1C(COC(=O)c2cc3c(cc2Cl)OCO3)C1(C)C (configuration not stated)	46.4 µM	53.8	39.6	> 100	> 100 µM	> 100	> 100	81.8	> 100	> 100	92.6 µM	> 100	> 100	> 100		91.2				
Cc1cc(NC(=S)Nc2ccccc2)c(NC(=S)Nc2ccccc2)cc1C	32.4 µM		> 100	> 100	> 100 µM						> 100 µM	> 74.9	> 100	> 100	98.6 µM	> 100				
COCc1nc2c(OC)cc(-c3nc4nc(N5CCN(C)CC5)ccc4[nH]3)c(OC)c2[nH]1	> 100 µM	> 100	38.8	61	> 100 µM	> 100	> 100	> 100	> 100	> 100	> 100 µM	75.9	> 100	> 100	> 100 µM	> 100				
N#C[S-].[Nd+3].c1cnc2c(c1)ccc1cccnc12.c1cnc2c(c1)ccc1cccnc12.c1cnc2c(c1)ccc1cccnc12	18.1 µM		14.1		32.1 µM		11.8			13		3.85	14.2	20.2		5.91				
O=C1C=CC2(O[C@H](c3ccccc3)[C@@H](c3ccccc3)O2)C(SC(=O)c2ccccc2)C1 (some centres not stated)		5.04	2.87	3.97	3.55 µM	18	1.76	1.65	4.58	3.01	2.2 µM		6.42	3.89	2.83 µM	4.32				
CCC(=O)Nc1ccc(N=Cc2cccc(Oc3ccccc3)c2)cc1	> 100 µM	> 100	> 100		> 100 µM		> 100	> 100	> 100	> 100	> 100 µM	63.9	> 100	> 100	> 100 µM	> 100				
